Data from patent US20210322520A1, “METHODS OF MODULATING CORTICOSTEROID RESPONSE” (priority 2019, published 2021).
Read-outs that look alike come from different tables or passages of the source.

Tests used:
[1] = Cortisol-equivalent (steroidogenic) exposure of methylprednisolone; type: in vivo, human; details: for plasma free cortisol-equivalent AUEC24SG / plasma total cortisol-equivalent AUEC24SG: 32 mg oral daily, mean; for EmaxSG / AUEC24SG[BA]: mean (SD); for TmaxSG: median (min, max); for AUEC24SG[BA]: baseline-corrected
Description: Whole blood samples were drawn from each subject at predefined time points over 24 hours after oral methylprednisolone administration on study Day 1 and Day 4 for determination of plasma total and free methylprednisolone concentrations. All subjects who were in both the PK and PD populations were included in the cortisol-equivalent exposure population.
Because oral methylprednisolone is known to suppress endogenous cortisol production, PD parameters for serum total and plasma free cortisol after administration of methylprednisolone were not calculated. Instead, the cortisol-equivalent (steroidogenic) concentration (CSG) of methylprednisolone was estimated. […] Therefore, a conversion factor of 5 was applied to the methylprednisolone concentration (ConcMPD). The following equation was used to estimate the steroidogenic concentration of methylprednisolone (CSG):
CSG=(5×ConcMPo)+ConcCortisol
CSG was used to estimate the following PD parameters for the steroidogenic concentration of plasma total and free methylprednisolone: maximum observed effect for the steroidogenic concentration (CSG) concentration-time profile (EmaxSG), time of EmaxSG (TmaxSG), and area under the effect curve for the CSG concentration-time profile from time 0 to 24 hours (AUEC24SG). Baseline-corrected AUEC24SG (AUEC24SG[BA]) was calculated by subtracting the baseline (Day-1) cortisol concentrations from the time-matched Day 1 steroidogenic concentration.

[2] = Safety analyses (adverse events), phase 1 study; type: in vivo, human
Description: All subjects who received at least one dose of the study drug were in the safety population. Safety was assessed via adverse events (AEs), treatment-emergent AEs (TEAEs; events that occurred after the first dose of study drug and through study completion), serious TEAEs (TESAEs), physical examinations, vital signs, 12-lead electrocardiograms (ECGs), and clinical laboratory test findings collected throughout the study.

[3] = Phase 1 plasma pharmacokinetics in healthy subjects; type: in vivo, human; details: for Cmax / half-life / AUC(0-t): plasma; for RAUC0-24 (accumulation ratio): AUC0-24 Day 4 / Day 1; for time of mean peak plasma concentration: after oral dosing
Description: Baseline demographics were collected during the screening period between study Day −28 and Day −3. Subjects remained at the clinic from 2 days before the first dose of study drug (Day-2) until study Day 8.
Serum samples for total cortisol and plasma samples for free cortisol, total methylprednisolone, free methylprednisolone, and ACTH1-24 were analyzed by Syneos Health (Quebec City, Quebec, Canada); plasma samples for N25D porcine ACTH1-39 were analyzed by QPS Netherlands BV (Groningen, Netherlands). Concentrations for all analytes were determined using liquid chromatography-tandem mass spectrometry methods that were validated according to the US FDA Bioanalytical Method Validation Guidance (May 2018). […]
The plasma total and free methylprednisolone were determined using a validated LC-MS/MS method developed by Syneos Health (Quebec City, Quebec, Canada). The LC-MS/MS methods for plasma total and free methylprednisolone were conducted using an Atmospheric Pressure Ionization (API) 5000 mass spectrometer (AB Sciex, Toronto, Canada) with positive electrospray ionization and multiple reaction monitoring (precursor/product ion m/z: 375/161 for methylprednisolone; 381/363 for methylprednisolone-d6, which was included as internal standard). Quantitative analysis was accomplished on an ACE Excel 2 C18-PFP (50×3.0 mm, 2 μm) column. The mobile phases were Milli-Q type water/methanol with ammonium formate and formic acid (in different proportions). The LC was run on isocratic mode followed by a column flush. The calibration range for plasma total methylprednisolone concentration was 0.500 to 500 ng/mL with LLOQ of 0.500 ng/mL. The inter- and intra-run-precision (relative SD) were ≤7%, and 8%, while the intra-run accuracy was 100% to 112%. The calibration range for plasma free cortisol concentration was 200 to […]. The inter- and intra-run-precision (relative SD) were ≤18.5% and 3%, respectively, while the intra-run accuracy was 94% to 101%.
All subjects whose PK profile contained at least 4 consecutive quantifiable concentrations were included in the PK population.
All subjects whose PK profile contained at least 4 consecutive quantifiable plasma concentrations of N25D porcine ACTH1-39, ACTH1-24, or total and free methylprednisolone were in the PK population.
PK parameters were estimated using actual blood collection times by noncompartmental methods using Phoenix® WinNonlin® 8.1. (Certara USA, Inc.). AUC0-24, AUC0-last, and AUC0-inf were calculated using the linear log trapezoidal rule. Kei was calculated using linear regression on the terminal slope of the ln-concentration versus time curve. At least 3 time points (excluding Cmax) and r^2≥0.90 were required to calculate and retain Kel and its associated parameters (t1/2 and AUC0-inf).

[4] = tested on: corticosterone levels in rats; assay: Corticosterone levels in rats after RCI or ACTH; type: in vivo, rat
Description: Studies were conducted to discover the differences between repository corticotropin injection (RCI) (i.e. Acthar® gel) and synthetic adrenal corticotropin compositions (referred to as ACTH herein) on corticosterone levels in rats.
RCI (10, 40, or 400 IU/kg) or ACTH (0.6, 1.2, or 2.4 mg/kg) was administered to Sprague Dawely rats, plasma samples collected and analyzed for corticosterone.
RCI and ACTH peak corticosterone and area under the curve (AUC) were evaluated.

[5] = free cortisol (steroidogenic concentration), Day 1
[6] = free cortisol (steroidogenic concentration), Day 4
[7] = total cortisol (steroidogenic concentration), Day 1
[8] = total cortisol (steroidogenic concentration), Day 4
[9] = human, oral, 32 mg, plasma free methylprednisolone, Day 1, mean (SD)
[10] = human, oral, 32 mg, plasma free methylprednisolone, Day 4, mean (SD)

C[C@H]1C[C@@H]2[C@H]([C@@H](O)C[C@@]3(C)[C@H]2CC[C@]3(O)C(=O)CO)[C@@]2(C)C=CC(=O)C=C12 [Methylprednisolone, methylprednisolone]
plasma free cortisol-equivalent AUEC24SG ([1]; Day 1): 572.0 ng·h/mL
plasma total cortisol-equivalent AUEC24SG ([1]; Day 1): 6480.0 ng·h/mL
plasma free cortisol-equivalent AUEC24SG ([1]; Day 4): 492.0 ng·h/mL
plasma total cortisol-equivalent AUEC24SG ([1]; Day 4): 5440.0 ng·h/mL
EmaxSG [1, 5]: 124.0 (37.2) ng/mL
TmaxSG [1, 5]: 2.0 (1.0, 4.0) h
EmaxSG [1, 6]: 109.0 (26.7) ng/mL
TmaxSG [1, 6]: 2.0 (1.0, 4.0) h
AUEC24SG[BA] ([1]; free cortisol, Day 1): 553.0 (187.0) h*ng/mL
AUEC24SG[BA] ([1]; free cortisol, Day 4): 475.0 (140.0) h*ng/mL
EmaxSG [1, 7]: 1040.0 (251.0) ng/mL
TmaxSG [1, 7]: 2.0 (2.0, 4.0) h
EmaxSG [1, 8]: 959.0 (188.0) ng/mL
TmaxSG [1, 8]: 2.0 (1.0, 4.0) h
AUEC24SG[BA] ([1]; total cortisol, Day 1): 4860.0 (1680.0) h*ng/mL
AUEC24SG[BA] ([1]; total cortisol, Day 4): 4010.0 (1260.0) h*ng/mL
subjects experiencing TESAEs (in words) ([2]; TESAE of pulmonary embolism in the synthetic ACTH1-24 depot group): no subjects
AEs ([2]; n = 16 per group): 17 No.
Any TESAE ([2]; n = 16 per group): 0 No. (%)
Subjects with any TEAE ([2]; n = 16 per group): 10 (62.5) No. (%)
TEAE: Contusion ([2]; n = 16 per group): 1 (6.3) No. (%)
TEAE: Dysuria ([2]; n = 16 per group): 0 No. (%)
TEAE: Headache ([2]; n = 16 per group): 2 (12.6) No. (%)
TEAE: Heart palpitations ([2]; n = 16 per group): 2 (12.5) No. (%)
TEAE: Injection site reaction ([2]; n = 16 per group): 0 No. (%)
TEAE: Insomnia ([2]; n = 16 per group): 0 No. (%)
TEAE: Somnolence ([2]; n = 16 per group): 0 No. (%)
TESAE: Pulmonary embolism ([2]; n = 16 per group): 0 No. (%)
mean exposure of plasma free methylprednisolone as share of plasma total methylprednisolone ([3]; both days (Day 1 and Day 4)): about 8%
AUC(0-inf) [3, 9]: 106 ng·h/mL
Tmax ([3]; human, oral, 32 mg, plasma total methylprednisolone, Day 1, median (min, max)): 2 h
Cmax [3, 9]: 24.6 ng/mL
half-life [3, 9]: 1.9 h
AUC(0-t) ([3]; human, oral, 32 mg, plasma free methylprednisolone, Day 1, mean (SD), read-out: AUC0-last): 104 ng·h/mL
AUC(0-t) ([3]; human, oral, 32 mg, plasma free methylprednisolone, Day 1, n = 1, read-out: AUC0-24): 176 ng·h/mL
Cmax [3, 10]: 21.9 ng/mL
half-life [3, 10]: 2 h
AUC(0-t) ([3]; human, oral, 32 mg, plasma free methylprednisolone, Day 4, mean (SD), read-out: AUC0-last): 89.5 ng·h/mL
AUC(0-t) ([3]; human, oral, 32 mg, plasma free methylprednisolone, Day 4, n = 1, read-out: AUC0-24): 145 ng·h/mL
half-life ([3]; human, oral, 32 mg, plasma total methylprednisolone, Day 1, mean (SD)): 2.2 h
half-life ([3]; human, oral, 32 mg, plasma total methylprednisolone, Day 4, mean (SD)): 2.4 h
AUC(0-t) ([3]; human, oral, 32 mg, plasma total methylprednisolone, Day 4, mean (SD), read-out: AUC0-24): 1110 ng·h/mL
AUC(0-t) ([3]; human, oral, 32 mg, plasma total methylprednisolone, Day 4, mean (SD), read-out: AUC0-last): 919 ng·h/mL
Cmax ([3]; human, po, 32 mg, plasma total methylprednisolone, 32 mg oral daily, Day 1, mean (SD)): 198 ng/mL
Cmax ([3]; human, po, 32 mg, plasma total methylprednisolone, 32 mg oral daily, Day 4, mean (SD)): 188 ng/mL
AUC(0-t) ([3]; human, po, 32 mg, plasma total methylprednisolone, Day 1, mean (SD), read-out: AUC0-24): 1330 ng·h/mL
AUC(0-t) ([3]; human, po, 32 mg, plasma total methylprednisolone, Day 1, mean (SD), read-out: AUC0-last): 1020 ng·h/mL
AUC(0-inf) ([3]; human, po, 32 mg, plasma total methylprednisolone, Day 1, mean (SD)): 1030 ng·h/mL
RAUC0-24 (accumulation ratio) ([3]; plasma free methylprednisolone, n = 1): 0.8 (NA)
RAUC0-24 (accumulation ratio) ([3]; plasma free methylprednisolone, n = 1, listed as methylprednisolone): 0.8
time of mean peak plasma concentration ([3]; plasma free methylprednisolone): 2 h
RAUC0-24 (accumulation ratio) ([3]; plasma total methylprednisolone, mean (SD)): 0.9 (0.1)
RAUC0-24 (accumulation ratio) ([3]; plasma total methylprednisolone, mean (SD), listed as methylprednisolone): 0.9
time of mean peak plasma concentration ([3]; plasma total methylprednisolone): around 2 hours

ACTH
reduction of corticosterone AUC between ACTH doses ([4]; ACTH 0.6, 1.2, 2.4 mg/kg): no significant reduction
dose dependence of corticosterone peak ([4]; Sprague Dawely rats, plasma): not dose dependent
time of peak corticosterone ([4]; Sprague Dawely rats, plasma, RCI 10, 40, 400 IU/kg, ACTH 0.6, 1.2, 2.4 mg/kg): 8 to 24 h
